Reference: patent US20100298141A1, “SUBSTITUTED PYRIDINE N-OXIDE HERBICIDES” (E. I. DU PONT DE NEMOURS AND COMPANY, priority 2007, published 2010)

Key:
Assay in all cases: Test F preemergence test
common ragweed = assay type: in vivo, Ambrosia elation; details: scale 0 to 100
Method in brief: (§1)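 Compounds in a non-phytotoxic solvent formulation with surfactant were applied before emergence after sowing, or, for sugarcane, also postemergence. Evaluation was visual, against controls, after 14 to 21 greenhouse days.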

quackgrass = assay type: in vivo, Elytrigia repens; details: scale 0 to 100
Method in brief: as §1

itchgrass = assay type: in vivo, Rottboellia cochinchinensis; details: scale 0 to 100
Method in brief: as §1

Italian ryegrass = assay type: in vivo, Lolium multiflorum; details: scale 0 to 100
Method in brief: as §1

common groundsel = assay type: in vivo, Senecio vulgaris; details: scale 0 to 100
Method in brief: as §1

johnsongrass = assay type: in vivo, Sorghum halepense; details: scale 0 to 100
Method in brief: as §1

prickly sida = assay type: in vivo, Sida spinosa; details: scale 0 to 100
Method in brief: as §1

broadleaf signalgrass = assay type: in vivo, Brachiaria platyphylla; details: scale 0 to 100
Method in brief: as §1

Surinam grass = assay type: in vivo, Brachiaria decumbens; details: scale 0 to 100
Method in brief: as §1

kochia = assay type: in vivo, Kochia scoparia; details: preemergence, scale 0 to 100
Method in brief: as §1

goosegrass = assay type: in vivo, Eleusine indica; details: scale 0 to 100
Method in brief: as §1

naked crabgrass = assay type: in vivo, Digitaria nuda; details: scale 0 to 100
Method in brief: as §1

barnyardgrass = assay type: in vivo, Echinochloa crus-galli
Method in brief: as §1

large crabgrass = assay type: in vivo, Digitaria sanguinalis; details: scale 0 to 100
Method in brief: as §1

dallisgrass = assay type: in vivo, Paspalum dilatatum; details: scale 0 to 100
Method in brief: as §1

pitted morningglory = assay type: in vivo, Ipomoea lacunosa; details: scale 0 to 100
Method in brief: as §1

Virginia dayflower = assay type: in vivo, Commelina virginica; details: 16 g ai/ha, preemergence; scale 0 to 100
Method in brief: as §1

bermudagrass = assay type: in vivo, Cynodon dactylon; details: scale 0 to 100
Method in brief: as §1

mustard = assay type: in vivo, Brassica nigra; details: scale 0 to 100
Method in brief: as §1

common purslane = assay type: in vivo, Portulaca oleracea; details: scale 0 to 100
Method in brief: as §1

guineagrass = assay type: in vivo, Panicum maximum; details: scale 0 to 100
Method in brief: as §1

CCn1nc(C(F)(F)F)c(CS(=O)(=O)c2cc(C)cc[n+]2[O-])c1OCC(F)(F)F [Compound 64]
Plant response rating, Ragweed (common ragweed; 16 g ai/ha, preemergence): 0
Ragweed plant response rating (common ragweed; 125 g ai/ha, preemergence): 85
Plant response rating, Ragweed (common ragweed; Preemergence, 62 g ai/ha): 50
Plant response rating, Ragweed (common ragweed; Preemergence, 31 g ai/ha): 30
Plant response rating, Quackgrass (quackgrass; 16 g ai/ha, preemergence): 40
Quackgrass plant response rating (quackgrass; 62 g ai/ha, Preemergence): 95
Quackgrass plant response rating (quackgrass; 125 g ai/ha, preemergence): 95
Plant response rating, Quackgrass (quackgrass; Preemergence, 31 g ai/ha): 75
Plant response rating, Itchgrass (itchgrass; 16 g ai/ha, preemergence): 0
Itchgrass plant response rating (itchgrass; 62 g ai/ha, Preemergence): 30
Itchgrass plant response rating (itchgrass; 125 g ai/ha, preemergence): 75
Plant response rating, Itchgrass (itchgrass; Preemergence, 31 g ai/ha): 30
Plant response rating, Ryegrass, Italian (Italian ryegrass; 16 g ai/ha, preemergence): 0
Ryegrass, Italian plant response rating (Italian ryegrass; 125 g ai/ha, preemergence): 90
Plant response rating, Ryegrass, Italian (Italian ryegrass; Preemergence, 62 g ai/ha): 75
Plant response rating, Ryegrass, Italian (Italian ryegrass; Preemergence, 31 g ai/ha): 20
Plant response rating, Groundsel (common groundsel; 16 g ai/ha, preemergence): 0
Groundsel plant response rating (common groundsel; 62 g ai/ha, Preemergence): 15
Groundsel plant response rating (common groundsel; 125 g ai/ha, preemergence): 80
Plant response rating, Groundsel (common groundsel; Preemergence, 31 g ai/ha): 0
Plant response rating, Johnsongrass (johnsongrass; 16 g ai/ha, preemergence): 0
Johnsongrass plant response rating (johnsongrass; 62 g ai/ha, Preemergence): 90
Johnsongrass plant response rating (johnsongrass; 125 g ai/ha, preemergence): 100
Plant response rating, Johnsongrass (johnsongrass; Preemergence, 31 g ai/ha): 75
Plant response rating, Prickly Sida (prickly sida; 16 g ai/ha, preemergence): 0
Prickly Sida plant response rating (prickly sida; 62 g ai/ha, Preemergence): 30
Prickly Sida plant response rating (prickly sida; 125 g ai/ha, preemergence): 75
Plant response rating, Prickly Sida (prickly sida; Preemergence, 31 g ai/ha): 0
Plant response rating, Signalgrass (broadleaf signalgrass; 16 g ai/ha, preemergence): 30
Signalgrass plant response rating (broadleaf signalgrass; 125 g ai/ha, preemergence): 100
Plant response rating, Signalgrass (broadleaf signalgrass; Preemergence, 62 g ai/ha): 100
Plant response rating, Signalgrass (broadleaf signalgrass; Preemergence, 31 g ai/ha): 30
Plant response rating, Surinam Grass (Surinam grass; 16 g ai/ha, preemergence): 10
Surinam Grass plant response rating (Surinam grass; 125 g ai/ha, preemergence): 100
Plant response rating, Surinam Grass (Surinam grass; Preemergence, 62 g ai/ha): 95
Plant response rating, Surinam Grass (Surinam grass; Preemergence, 31 g ai/ha): 90
Plant response rating, Kochia (kochia; 16 g ai/ha): 0
Kochia plant response rating (kochia; 125 g ai/ha): 75
Plant response rating, Goosegrass (goosegrass; 16 g ai/ha, preemergence): 75
Goosegrass plant response rating (goosegrass; 62 g ai/ha, Preemergence): 90
Goosegrass plant response rating (goosegrass; 125 g ai/ha, preemergence): 98
Plant response rating, Goosegrass (goosegrass; Preemergence, 31 g ai/ha): 90
Plant response rating, Crabgrass, Naked (naked crabgrass; 16 g ai/ha, preemergence): 30
Crabgrass, Naked plant response rating (naked crabgrass; 62 g ai/ha, Preemergence): 100
Crabgrass, Naked plant response rating (naked crabgrass; 125 g ai/ha, preemergence): 100
Plant response rating, Crabgrass, Naked (naked crabgrass; Preemergence, 31 g ai/ha): 40
Plant response rating, Barnyardgrass (barnyardgrass; 16 g ai/ha, preemergence, scale 0 to 100 (0 no effect, 100 complete control)): 65
Barnyardgrass plant response rating (barnyardgrass; 62 g ai/ha, Preemergence, scale 0 to 100): 100
Barnyardgrass plant response rating (barnyardgrass; 125 g ai/ha, preemergence, scale 0 to 100): 100
Plant response rating, Barnyardgrass (barnyardgrass; Preemergence, 31 g ai/ha, scale 0 to 100): 80
Plant response rating, Crabgrass, Large (large crabgrass; 16 g ai/ha, preemergence): 10
Crabgrass, Large plant response rating (large crabgrass; 62 g ai/ha, Preemergence): 75
Crabgrass, Large plant response rating (large crabgrass; 125 g ai/ha, preemergence): 95
Plant response rating, Crabgrass, Large (large crabgrass; Preemergence, 31 g ai/ha): 65
Plant response rating, Dallisgrass (dallisgrass; 16 g ai/ha, preemergence): 0
Dallisgrass plant response rating (dallisgrass; 62 g ai/ha, Preemergence): 70
Dallisgrass plant response rating (dallisgrass; 125 g ai/ha, preemergence): 90
Plant response rating, Dallisgrass (dallisgrass; Preemergence, 31 g ai/ha): 35
Plant response rating, Morningglory (pitted morningglory; 16 g ai/ha, preemergence): 0
Morningglory plant response rating (pitted morningglory; 62 g ai/ha, Preemergence): 0
Morningglory plant response rating (pitted morningglory; 125 g ai/ha, preemergence): 35
Plant response rating, Morningglory (pitted morningglory; Preemergence, 31 g ai/ha): 0
Plant response rating, Dayflower (Virginia dayflower): 0
Plant response rating, Bermudagrass (bermudagrass; 16 g ai/ha, preemergence): 0
Bermudagrass plant response rating (bermudagrass; 62 g ai/ha, Preemergence): 75
Bermudagrass plant response rating (bermudagrass; 125 g ai/ha, preemergence): 90
Plant response rating, Bermudagrass (bermudagrass; Preemergence, 31 g ai/ha): 25
Plant response rating, Black Mustard (mustard; 16 g ai/ha, preemergence): 0
Black Mustard plant response rating (mustard; 62 g ai/ha, Preemergence): 80
Black Mustard plant response rating (mustard; 125 g ai/ha, preemergence): 90
Plant response rating, Black Mustard (mustard; Preemergence, 31 g ai/ha): 0
Plant response rating, Purslane (common purslane; 16 g ai/ha, preemergence): 0
Purslane plant response rating (common purslane; 62 g ai/ha, Preemergence): 30
Purslane plant response rating (common purslane; 125 g ai/ha, preemergence): 60
Plant response rating, Purslane (common purslane; Preemergence, 31 g ai/ha): 10
Plant response rating, Guineagrass (guineagrass; 16 g ai/ha, preemergence): 80
Guineagrass plant response rating (guineagrass; 62 g ai/ha, Preemergence): 100
Guineagrass plant response rating (guineagrass; 125 g ai/ha, preemergence): 100
Plant response rating, Guineagrass (guineagrass; Preemergence, 31 g ai/ha): 98
